Legend:
[1] = molecular target: T1, human Eg5 (monomeric construct Eg52-386) (Homo sapiens, UniProt P52732); assay: In vitro inhibition of the ATPase activity of kinesin Eg5 (pyruvate kinase/lactate dehydrogenase coupled assay); type: biochemical; conditions: for % inhibition: in vitro ATPase activity of Eg5, inhibitor concentration not given; for IC50: in vitro inhibition of ATPase activity of Eg5
T1 construct: the basal ATPase activity was measured using 1-4 μM of Eg5 (2-386) for the above test; made in house
T1 sequence (P52732 2-386): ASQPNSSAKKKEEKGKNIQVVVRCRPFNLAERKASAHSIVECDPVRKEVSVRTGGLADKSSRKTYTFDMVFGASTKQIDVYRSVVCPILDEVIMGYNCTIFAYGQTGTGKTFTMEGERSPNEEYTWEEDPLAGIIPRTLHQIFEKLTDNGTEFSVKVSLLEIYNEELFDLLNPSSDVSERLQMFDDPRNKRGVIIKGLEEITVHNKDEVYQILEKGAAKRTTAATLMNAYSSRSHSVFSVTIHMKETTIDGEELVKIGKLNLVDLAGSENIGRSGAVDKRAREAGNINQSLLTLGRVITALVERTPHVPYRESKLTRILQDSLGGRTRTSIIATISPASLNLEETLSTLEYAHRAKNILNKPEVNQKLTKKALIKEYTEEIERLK
Protocol: All the assays were carried out at ambient temperature using the TECAN 96-well Sunrise photometer with a final volume of 200-250 μl per well. The ATPase contents were measured using the pyruvate kinase/lactate dehydrogenase protocol in an A25A buffer (25 mM potassium ACES, pH 6.9, 2 mM magnesium acetate, 2 mM potassium EGTA, 0.1 mM potassium EDTA, 1 mM mercaptoethanol) . In the […] of MT (microtubules) stabilized with paclitaxel, 300 nM of Eg52-386 were used for the test and, in the absence of MT, the basal ATPase activity was measured using 1-4 μM of Eg5 (2-386) for the above test or the malachite green test. For optimal solubility of the inhibitor, the assays were carried out in the presence of up to 2.2% of DMSO. […] The data were analyzed using a Kaleidagraph 3.0 (Synergy Software) and Microsoft Excel, so as to obtain the IC50 values.
The IC50 values for the in vitro inhibition of the ATPase activity of the kinesin motor proteins are determined according to the method described in S. DeBonis et al. (2003) Biochemistry 42, 338-349. Monastrol was used as a positive control. When necessary, the concentrations of inhibitor were adjusted according to the initial IC50. Each concentration of inhibitor was measured one to three times and averaged data are indicated with the margins of error±the standard deviation.

kinesin Eg5 = molecular target: T2, kinesin Eg5 (Homo sapiens, UniProt P52732); conditions: prior-art values given in the background; read-out: antimitotic effect IC50; cited from earlier work
T2 sequence (P52732 1-1056): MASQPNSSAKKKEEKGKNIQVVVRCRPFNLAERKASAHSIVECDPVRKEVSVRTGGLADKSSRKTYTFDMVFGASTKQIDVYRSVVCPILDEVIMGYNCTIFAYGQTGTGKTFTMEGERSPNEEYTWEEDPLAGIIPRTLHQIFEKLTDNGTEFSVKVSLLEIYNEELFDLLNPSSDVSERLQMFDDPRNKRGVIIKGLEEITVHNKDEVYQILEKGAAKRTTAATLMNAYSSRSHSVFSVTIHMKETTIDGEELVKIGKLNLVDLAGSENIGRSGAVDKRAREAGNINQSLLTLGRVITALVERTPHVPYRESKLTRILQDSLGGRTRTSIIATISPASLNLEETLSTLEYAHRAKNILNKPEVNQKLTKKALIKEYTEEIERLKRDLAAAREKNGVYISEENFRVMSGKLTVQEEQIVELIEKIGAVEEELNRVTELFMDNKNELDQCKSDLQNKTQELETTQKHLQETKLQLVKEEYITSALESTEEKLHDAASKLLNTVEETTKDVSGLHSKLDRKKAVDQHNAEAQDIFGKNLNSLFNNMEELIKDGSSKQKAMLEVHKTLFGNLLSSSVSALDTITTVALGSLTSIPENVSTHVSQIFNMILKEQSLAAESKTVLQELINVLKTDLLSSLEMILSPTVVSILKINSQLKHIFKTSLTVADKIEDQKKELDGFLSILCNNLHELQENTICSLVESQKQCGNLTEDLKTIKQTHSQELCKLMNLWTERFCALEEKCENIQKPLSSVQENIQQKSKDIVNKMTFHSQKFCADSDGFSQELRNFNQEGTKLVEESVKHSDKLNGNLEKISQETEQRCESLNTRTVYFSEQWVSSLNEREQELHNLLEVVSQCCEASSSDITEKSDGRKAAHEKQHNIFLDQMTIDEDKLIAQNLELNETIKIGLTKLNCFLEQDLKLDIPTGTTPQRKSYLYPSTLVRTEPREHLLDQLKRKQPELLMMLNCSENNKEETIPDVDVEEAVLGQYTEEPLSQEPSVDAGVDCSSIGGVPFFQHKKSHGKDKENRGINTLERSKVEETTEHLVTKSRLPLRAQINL

Row | Structure (SMILES) | % inhibition [1] | IC50 [1] | IC50 (kinesin Eg5)
1 | CCOC(=O)C1=C(C)NC(=S)NC1c1ccccc1 (stereo not drawn) [Compound 1] | 80% | 9.5 µM | 
2 | CCOC(=O)C1=C(C)NC(=S)NC1c1cccc(O)c1 (stereo not drawn) [Compound 2] | ≧90%^ | 16 µM | 
3 | CCOC(=O)C1=C(C)NC(=S)NC1c1ccc(O)cc1 (stereo not drawn) [Compound 3] | 20% | 212 µM | 
4 | COc1ccc(C2NC(=S)NC(C)=C2C(=O)OCc2ccccc2)cc1 (stereo not drawn) [Compound 4] | 40% | 6.6 µM | 
5 | CC1=C(C(=O)OCc2ccccc2)C(c2ccccc2)NC(=S)N1 (stereo not drawn) [Compound 5] | 40% | 11.8 µM | 
6 | CC1=C(C(=O)OCc2ccccc2)C(c2cccc(O)c2)NC(=S)N1 (stereo not drawn) [Compound 6] | ≧90%^ | 10.3 µM | 
7 | CCOC(=O)C1=C(C)N(C)C(=S)NC1c1ccccc1 (stereo not drawn) [Compound 7] | 60% | 21 µM | 
8 | CCOC(=O)C1=C(C)N(C)C(=S)NC1c1cccc(O)c1 (stereo not drawn) [Compound 8] | ≧90%^ | 6.3 µM | 
9 | CC(=O)C1=C(C)NC(=S)NC1c1ccccc1 (stereo not drawn) [Compound 9] | ≧90%^ | 24 µM | 
10 | CC(=O)C1=C(C)NC(=S)NC1c1ccc(O)cc1 (stereo not drawn) [Compound 10] | 80% | 56 µM | 
11 | CC1=C(C(=O)c2ccccc2)C(c2ccc(O)cc2)NC(=S)N1 (stereo not drawn) [Compound 11] | ≧90%^ | 14.7 µM | 
12 | CC(=O)C1=C(C)N(C)C(=S)NC1c1ccccc1 (stereo not drawn) [Compound 12] | 40% | 80 µM | 
13 | CC1=C(C(=O)c2ccccc2)C(c2ccccc2)NC(=S)N1C (stereo not drawn) [Compound 13] | ≧90%^ | 1.1 µM | 
14 | CC1=C(C(=O)OCc2ccccc2)C(c2cccc(O)c2)NC(=S)N1C (stereo not drawn) [Compound 14] | 48% | 9.8 µM | 
15 | CC(=O)C1=C(C)NC(=S)NC1c1cccc(O)c1 (stereo not drawn) [Compound 15] | ≧90%^ | 0.51 µM | 
16 | CC(=O)C1=C(C)N(C)C(=S)NC1c1cccc(O)c1 (stereo not drawn) [Compound 16] | 40% | 133 µM | 
17 | CC1=C(C(=O)c2ccccc2)C(c2cccc(O)c2)NC(=S)N1 (stereo not drawn) [Compound 17] | ≧90%^ | 0.25 µM | 

Row | Structure (SMILES) | % inhibition [1] | IC50 [1] | IC50 (kinesin Eg5)
18 | CC1=C(C(=O)c2ccccc2)C(c2cccc(O)c2)NC(=S)N1C (stereo not drawn) [Compound 18] | ≧90%^ |  | 
19 | CC1=C(C(=O)c2ccccc2)C(c2ccc(O)cc2)NC(=S)N1C (stereo not drawn) [Compound 19] | 87% | 24 µM | 
20 | CCOC(=O)C1=C(C)NC(=S)NC1c1cccc(Cl)c1 (stereo not drawn) [Compound 20] | 60% | 10 µM | 
21 | CCOC(=O)C1=C(C)NC(=S)NC1c1cccc(OC)c1 (stereo not drawn) [Compound 21] | 20% | 57 µM | 
22 | CCOC(=O)C1=C(C)NC(=S)NC1c1ccccc1F (stereo not drawn) [Compound 22] | 60% | 20 µM | 
23 | CCOC(=O)C1=C(C)NC(=S)NC1c1ccccc1Cl (stereo not drawn) [Compound 24] | 60% | 32 µM | 
24 | CCOC(=O)C1=C(C)NC(=S)NC1c1cccc(F)c1 (stereo not drawn) [Compound 25] | 60% | 14 µM | 
25 | CC1=C(C(=O)c2ccccc2)C(c2ccccc2)NC(=O)N1C (stereo not drawn) [Compound 26] | 84% | 5 µM | 
26 | CC1=C(C(=O)c2ccccc2)C(c2cccc(O)c2)NC(=O)N1C (stereo not drawn) [Compound 27] | 85% | 0.8 µM | 
27 | C=CCN1C(=S)NC(c2cccc(O)c2)C(C(=O)c2ccccc2)=C1C(F)(F)F (stereo not drawn) [Compound 28] | 70% | 17 µM | 
28 | CCOC(=O)C1=C(C(C)C)NC(=S)NC1c1cccc(O)c1 (stereo not drawn) [Compound 29] | 80% | 8.5 µM | 
29 | CCOC(=O)C1=C(CC)N(C)C(=S)NC1c1cccc(O)c1 (stereo not drawn) [Compound 30] | ≧90%^ | 10 µM | 
30 | CC1=C(C(=O)c2cccc(F)c2)C(c2cccc(O)c2)NC(=S)N1 (stereo not drawn) [Compound 31] | 87% | 0.82 µM | 
31 | CC1=C(C(=O)c2cccc(Cl)c2)C(c2cccc(O)c2)NC(=S)N1 (stereo not drawn) [Compound 32] | ≧90%^ | 0.5 µM | 
32 | CC1=C(C(=O)c2cccc(I)c2)C(c2cccc(O)c2)NC(=S)N1 (stereo not drawn) [Compound 33] | ≧90%^ | 0.5 µM | 
33 | COc1cccc(C(=O)C2=C(C)NC(=S)NC2c2cccc(O)c2)c1 (stereo not drawn) [Compound 34] | ≧90%^ | 1.1 µM | 
34 | CCOC(=O)C1=C(C)NC(=S)NC1c1cccc(O)c1 (stereo not drawn) [Monastrol] |  |  | > 14 µM
